pIC50: −log10 of the molar value. Blank lines part the entries; values can stand above or below the compound they belong to. Activity calls are given as the source filed them. The calls are words filed in the database; no cut-off is given here.
Tests used:
Rattus norvegicus = assay: Antiarthritic activity in complete Freund's adjuvant-induced Wistar rat arthritis model assessed as reduction in paw volume at 2 mg/kg, ip administered from 11th day to 20th day by vernier caliper analysis; format: functional, organism-based
[1] = biological target: T1, 3',5'-cyclic-AMP phosphodiesterase 4B (Homo sapiens, UniProt Q07343); assay: Inhibition of human recombinant His-tagged PDE4B expressed in Sf9 cells using cAMP as substrate at 10 uM preincubated with enzyme for 15 mins followed by substrate addition and incubated for 1 hr by PDELight HTS cAMP phosphodiesterase Kit based luminometry relative to control
[2] = biological target: T1, 3',5'-cyclic-AMP phosphodiesterase 4B; assay: Inhibition of recombinant His-tagged human PDE4B expressed in Sf9 cells using cAMP as substrate preincubated with enzyme for 15 mins followed by substrate addition and incubated for 1 hr by PDELight HTS cAMP phosphodiesterase Kit based luminometry
[3] = biological target: cGMP-inhibited 3',5'-cyclic phosphodiesterase 3A (Homo sapiens) (UniProt Q14432); assay: Inhibition of recombinant PDE3A (unknown origin) using FAM-cAMP as substrate at 0.1xIC50 incubated for 60 mins by fluorescence plate reader analysis
[4] = biological target: cGMP-inhibited 3',5'-cyclic phosphodiesterase 3B (Homo sapiens) (UniProt Q13370); assay: Inhibition of recombinant N-terminal GST-tagged human PDE3B (592-end aa) expressed in Sf9 cells using FAM-cAMP as substrate at 10xIC50 incubated for 60 mins by fluorescence plate reader analysis
[5] = biological target: cGMP-inhibited 3',5'-cyclic phosphodiesterase 3A (Homo sapiens) (UniProt Q14432); assay: Inhibition of recombinant PDE3A (unknown origin) using FAM-cAMP as substrate at 1xIC50 incubated for 60 mins by fluorescence plate reader analysis
[6] = biological target: cGMP-inhibited 3',5'-cyclic phosphodiesterase 3A (Homo sapiens) (UniProt Q14432); assay: Inhibition of recombinant PDE3A (unknown origin) using FAM-cAMP as substrate at 10xIC50 incubated for 60 mins by fluorescence plate reader analysis
[7] = biological target: cGMP-inhibited 3',5'-cyclic phosphodiesterase 3B (Homo sapiens) (UniProt Q13370); assay: Inhibition of recombinant N-terminal GST-tagged human PDE3B (592-end aa) expressed in Sf9 cells using FAM-cAMP as substrate at 0.1xIC50 incubated for 60 mins by fluorescence plate reader analysis
[8] = biological target: cGMP-inhibited 3',5'-cyclic phosphodiesterase 3B (Homo sapiens) (UniProt Q13370); assay: Inhibition of recombinant N-terminal GST-tagged human PDE3B (592-end aa) expressed in Sf9 cells using FAM-cAMP as substrate at 1xIC50 incubated for 60 mins by fluorescence plate reader analysis
Danio rerio = assay: Anti-sclerotic activity in MOG/CFA-induced zebra fish EAE model assessed as reduction in lesion score at 1 mg/kg, po measured for 7 days; format: functional, organism-based
[9] = biological target: 3',5'-cyclic-AMP phosphodiesterase 4A (Homo sapiens) (UniProt P27815); assay: Inhibition of recombinant N-terminal GST tagged human PDE4A4B (2-end aa) expressed in Sf9 cells using FAM-cAMP as substrate at 10xIC50 incubated for 60 mins by fluorescence plate reader analysis
[10] = Inhibition of recombinant N-terminal GST-tagged full length human PDE4A1A expressed in Sf9 cells using cAMP as substrate at 10xIC50 incubated for 60 mins by fluorescence plate reader analysis
[11] = biological target: 3',5'-cyclic-AMP phosphodiesterase 4A (Homo sapiens) (UniProt P27815); assay: Inhibition of recombinant N-terminal GST tagged human PDE4A4B (2-end aa) expressed in Sf9 cells using FAM-cAMP as substrate at 1xIC50 incubated for 60 mins by fluorescence plate reader analysis
[12] = Inhibition of recombinant N-terminal GST-tagged full length human PDE4A1A expressed in Sf9 cells using cAMP as substrate at 1xIC50 incubated for 60 mins by fluorescence plate reader analysis
[13] = Inhibition of recombinant N-terminal GST-tagged full length human PDE4A1A expressed in Sf9 cells using cAMP as substrate at 0.1xIC50 incubated for 60 mins by fluorescence plate reader analysis
[14] = biological target: 3',5'-cyclic-AMP phosphodiesterase 4A (Homo sapiens) (UniProt P27815); assay: Inhibition of recombinant N-terminal GST tagged human PDE4A4B (2-end aa) expressed in Sf9 cells using FAM-cAMP as substrate at 0.1xIC50 incubated for 60 mins by fluorescence plate reader analysis
[15] = biological target: 3',5'-cyclic-AMP phosphodiesterase 4D (Homo sapiens, UniProt Q08499); assay: Inhibition of PDE4D2 (unknown origin) using cAMP as substrate preincubated with enzyme for 15 mins followed by substrate addition and incubated for 1 hr by PDELight HTS cAMP phosphodiesterase Kit based luminometry
Homo sapiens = species: Homo sapiens; assay: Selectivity index, ratio of IC50 for PDE4D2 (unknown origin) to IC50 for recombinant His-tagged human PDE4B expressed in sf9 cells using cAMP as substrate by PDELight HTS cAMP phosphodiesterase Kit based luminometry
[16] = biological target: High affinity 3',5'-cyclic-AMP phosphodiesterase 7A (Homo sapiens) (UniProt Q13946); assay: Inhibition of recombinant N-terminal GST tagged human PDE7A1 (122-end aa) expressed in Sf9 cells using FAM-cAMP as substrate at 10xIC50 incubated for 60 mins by fluorescence plate reader analysis
[17] = biological target: High affinity 3',5'-cyclic-AMP phosphodiesterase 7A (Homo sapiens) (UniProt Q13946); assay: Inhibition of recombinant N-terminal GST tagged human PDE7A1 (122-end aa) expressed in Sf9 cells using FAM-cAMP as substrate at 1xIC50 incubated for 60 mins by fluorescence plate reader analysis
[18] = biological target: High affinity 3',5'-cyclic-AMP phosphodiesterase 7A (Homo sapiens) (UniProt Q13946); assay: Inhibition of recombinant N-terminal GST tagged human PDE7A1 (122-end aa) expressed in Sf9 cells using FAM-cAMP as substrate at 0.1xIC50 incubated for 60 mins by fluorescence plate reader analysis

cGMP-inhibited 3',5'-cyclic phosphodiesterase 3A (Homo sapiens), sequence (Q14432 whole entry): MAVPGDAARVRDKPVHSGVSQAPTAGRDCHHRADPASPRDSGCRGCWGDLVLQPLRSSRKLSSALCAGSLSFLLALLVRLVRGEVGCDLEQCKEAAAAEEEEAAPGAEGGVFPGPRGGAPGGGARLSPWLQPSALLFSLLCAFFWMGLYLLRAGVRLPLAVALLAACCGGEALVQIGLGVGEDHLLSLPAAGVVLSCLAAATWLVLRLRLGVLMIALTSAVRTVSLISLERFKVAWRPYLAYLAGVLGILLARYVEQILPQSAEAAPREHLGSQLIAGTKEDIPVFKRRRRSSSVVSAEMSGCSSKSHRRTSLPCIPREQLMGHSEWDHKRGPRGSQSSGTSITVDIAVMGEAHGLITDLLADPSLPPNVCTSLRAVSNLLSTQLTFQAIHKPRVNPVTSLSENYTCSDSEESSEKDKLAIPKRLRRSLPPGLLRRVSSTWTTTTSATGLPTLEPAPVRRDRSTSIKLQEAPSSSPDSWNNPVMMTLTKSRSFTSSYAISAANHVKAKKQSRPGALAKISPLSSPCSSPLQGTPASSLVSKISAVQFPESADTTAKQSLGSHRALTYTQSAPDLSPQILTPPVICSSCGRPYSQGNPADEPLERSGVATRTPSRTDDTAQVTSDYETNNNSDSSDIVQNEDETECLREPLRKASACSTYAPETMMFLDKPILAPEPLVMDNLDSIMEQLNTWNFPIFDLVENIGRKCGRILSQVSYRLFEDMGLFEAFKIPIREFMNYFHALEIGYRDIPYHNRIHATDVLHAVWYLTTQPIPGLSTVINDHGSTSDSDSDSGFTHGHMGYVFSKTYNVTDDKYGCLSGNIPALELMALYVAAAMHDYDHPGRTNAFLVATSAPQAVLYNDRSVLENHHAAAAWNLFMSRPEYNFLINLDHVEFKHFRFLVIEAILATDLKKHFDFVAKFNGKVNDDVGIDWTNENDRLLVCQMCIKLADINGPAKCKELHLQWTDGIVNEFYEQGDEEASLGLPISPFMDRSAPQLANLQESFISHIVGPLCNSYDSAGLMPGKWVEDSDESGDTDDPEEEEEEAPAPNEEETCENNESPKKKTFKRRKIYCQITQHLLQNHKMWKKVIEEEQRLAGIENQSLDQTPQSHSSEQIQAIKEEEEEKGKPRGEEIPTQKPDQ
3',5'-cyclic-AMP phosphodiesterase 4A (Homo sapiens), sequence (P27815 whole entry): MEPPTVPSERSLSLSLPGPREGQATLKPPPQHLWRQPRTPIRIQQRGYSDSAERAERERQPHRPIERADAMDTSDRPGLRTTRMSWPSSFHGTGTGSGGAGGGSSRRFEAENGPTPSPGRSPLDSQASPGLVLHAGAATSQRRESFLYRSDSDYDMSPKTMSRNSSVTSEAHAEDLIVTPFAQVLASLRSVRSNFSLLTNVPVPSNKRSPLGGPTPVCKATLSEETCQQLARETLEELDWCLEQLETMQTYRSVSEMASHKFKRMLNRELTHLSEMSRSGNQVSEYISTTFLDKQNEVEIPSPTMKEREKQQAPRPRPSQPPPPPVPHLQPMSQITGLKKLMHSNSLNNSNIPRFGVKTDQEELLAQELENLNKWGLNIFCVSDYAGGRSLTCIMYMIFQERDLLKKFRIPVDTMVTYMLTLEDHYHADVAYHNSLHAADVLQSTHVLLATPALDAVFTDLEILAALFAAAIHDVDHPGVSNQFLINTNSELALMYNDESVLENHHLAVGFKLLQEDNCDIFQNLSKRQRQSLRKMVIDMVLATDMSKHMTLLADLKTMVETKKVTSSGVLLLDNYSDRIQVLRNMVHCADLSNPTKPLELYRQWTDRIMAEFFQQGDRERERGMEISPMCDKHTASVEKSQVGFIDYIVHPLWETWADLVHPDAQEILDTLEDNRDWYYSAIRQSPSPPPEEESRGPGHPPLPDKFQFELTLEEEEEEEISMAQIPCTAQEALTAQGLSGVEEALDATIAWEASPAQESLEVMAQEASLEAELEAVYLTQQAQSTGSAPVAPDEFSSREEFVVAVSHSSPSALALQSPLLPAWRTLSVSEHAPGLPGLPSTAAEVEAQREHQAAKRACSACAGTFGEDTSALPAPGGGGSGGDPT
cGMP-inhibited 3',5'-cyclic phosphodiesterase 3B (Homo sapiens), sequence (Q13370 whole entry, looked up): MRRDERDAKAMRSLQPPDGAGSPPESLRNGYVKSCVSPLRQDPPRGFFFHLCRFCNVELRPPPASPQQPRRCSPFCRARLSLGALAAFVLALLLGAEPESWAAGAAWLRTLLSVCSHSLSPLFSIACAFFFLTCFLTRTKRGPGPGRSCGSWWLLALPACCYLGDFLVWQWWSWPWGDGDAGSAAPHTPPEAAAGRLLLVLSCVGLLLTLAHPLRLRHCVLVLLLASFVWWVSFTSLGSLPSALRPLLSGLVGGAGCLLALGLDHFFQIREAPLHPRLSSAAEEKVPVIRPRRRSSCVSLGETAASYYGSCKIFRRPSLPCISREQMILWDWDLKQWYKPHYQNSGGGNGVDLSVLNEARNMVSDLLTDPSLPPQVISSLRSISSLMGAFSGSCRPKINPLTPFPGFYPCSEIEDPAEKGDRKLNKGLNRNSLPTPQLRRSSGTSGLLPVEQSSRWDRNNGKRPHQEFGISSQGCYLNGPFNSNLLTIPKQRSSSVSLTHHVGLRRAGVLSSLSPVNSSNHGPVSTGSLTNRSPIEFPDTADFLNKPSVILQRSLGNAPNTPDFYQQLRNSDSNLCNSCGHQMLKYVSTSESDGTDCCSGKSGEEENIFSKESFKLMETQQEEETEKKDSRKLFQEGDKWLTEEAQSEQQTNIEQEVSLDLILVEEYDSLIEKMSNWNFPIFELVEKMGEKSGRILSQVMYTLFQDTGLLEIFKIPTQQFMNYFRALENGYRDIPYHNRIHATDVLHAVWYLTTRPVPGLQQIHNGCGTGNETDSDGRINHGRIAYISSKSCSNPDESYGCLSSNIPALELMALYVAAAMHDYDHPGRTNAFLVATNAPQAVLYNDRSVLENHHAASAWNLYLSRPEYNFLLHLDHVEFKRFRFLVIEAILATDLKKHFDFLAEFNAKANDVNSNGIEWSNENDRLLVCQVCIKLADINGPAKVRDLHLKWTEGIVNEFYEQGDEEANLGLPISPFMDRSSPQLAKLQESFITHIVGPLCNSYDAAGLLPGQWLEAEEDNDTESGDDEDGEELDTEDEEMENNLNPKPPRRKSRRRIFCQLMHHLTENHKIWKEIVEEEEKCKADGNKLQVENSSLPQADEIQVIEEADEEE
T1 sequence (Q07343 whole entry): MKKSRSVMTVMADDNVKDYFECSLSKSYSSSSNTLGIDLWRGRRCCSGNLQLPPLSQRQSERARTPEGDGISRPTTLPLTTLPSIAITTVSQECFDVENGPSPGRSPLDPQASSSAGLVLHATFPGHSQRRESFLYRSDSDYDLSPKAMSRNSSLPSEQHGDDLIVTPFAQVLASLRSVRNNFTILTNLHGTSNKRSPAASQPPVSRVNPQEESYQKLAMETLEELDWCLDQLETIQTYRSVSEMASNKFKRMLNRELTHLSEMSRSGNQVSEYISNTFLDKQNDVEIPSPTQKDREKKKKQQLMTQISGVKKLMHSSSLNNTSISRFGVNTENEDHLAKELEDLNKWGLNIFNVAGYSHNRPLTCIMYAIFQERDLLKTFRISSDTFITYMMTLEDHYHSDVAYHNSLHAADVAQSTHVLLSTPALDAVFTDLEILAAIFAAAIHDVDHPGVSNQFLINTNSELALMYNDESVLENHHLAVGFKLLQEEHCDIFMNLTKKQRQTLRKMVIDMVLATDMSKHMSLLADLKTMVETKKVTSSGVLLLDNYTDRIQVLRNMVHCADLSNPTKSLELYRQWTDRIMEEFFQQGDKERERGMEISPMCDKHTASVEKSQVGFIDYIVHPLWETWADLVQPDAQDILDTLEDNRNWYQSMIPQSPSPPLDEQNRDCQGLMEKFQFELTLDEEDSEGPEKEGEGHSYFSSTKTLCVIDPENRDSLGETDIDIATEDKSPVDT
High affinity 3',5'-cyclic-AMP phosphodiesterase 7A (Homo sapiens), sequence (Q13946 whole entry): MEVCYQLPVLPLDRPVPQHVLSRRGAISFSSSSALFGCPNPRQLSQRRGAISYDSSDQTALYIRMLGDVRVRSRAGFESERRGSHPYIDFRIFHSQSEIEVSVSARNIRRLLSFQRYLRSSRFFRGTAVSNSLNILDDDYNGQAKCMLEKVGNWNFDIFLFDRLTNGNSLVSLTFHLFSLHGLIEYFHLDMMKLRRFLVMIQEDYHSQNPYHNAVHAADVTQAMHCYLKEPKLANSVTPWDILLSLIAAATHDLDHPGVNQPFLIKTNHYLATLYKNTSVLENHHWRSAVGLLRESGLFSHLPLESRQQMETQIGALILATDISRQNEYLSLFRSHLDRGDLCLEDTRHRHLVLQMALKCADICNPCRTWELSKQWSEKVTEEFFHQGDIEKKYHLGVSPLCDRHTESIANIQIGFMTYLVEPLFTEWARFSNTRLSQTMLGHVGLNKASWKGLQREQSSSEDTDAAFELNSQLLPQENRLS

Compound: CN(Cc1cnc2nc(N)nc(N)c2n1)c1ccc(C(=O)N[C@@H](CCC(=O)O)C(=O)O)cc1
- inhibition (Rattus norvegicus): Active

Compound: CN(C(=O)CCCOc1ccc2[nH]c(=O)ccc2c1)C1CCCCC1
- inhibition [3]: 9%
- inhibition [4]: 94%
- inhibition [5]: 39%
- inhibition [6]: 85%
- inhibition [7]: 17%
- inhibition [8]: 61%

Compound: CCCCCCCCc1ccc(CCC(N)(CO)CO)cc1
- inhibition (Danio rerio): Active

Compound: CCOc1cc([C@@H](CS(C)(=O)=O)N2C(=O)c3cccc(NC(C)=O)c3C2=O)ccc1OC
- inhibition [9]: 91%
- inhibition [10]: 89%
- inhibition [11]: 57%
- inhibition [12]: 58%
- inhibition [13]: 13%
- inhibition [14]: 8%

Compound: Cc1ccc([N+](=O)[O-])cc1S(=O)(=O)N(C)C
- inhibition [16]: 88%
- inhibition [17]: 49%
- inhibition [18]: 10%

The next lines start with results.

- inhibition [1]: > 75%
- pIC50 [2]: 5.01
Compound: CC(C)n1cc(-c2nc3ccccc3nc2Cl)c2cc(Br)ccc21

- pIC50 [15]: 4.66
- inhibition [1]: > 75%
- pIC50 [2]: 5.33
Compound: C=CCn1cc(-c2nc3ccccc3nc2Cl)c2ccccc21
- Ratio IC50 (Homo sapiens): 4.8

- pIC50 [15]: 5.31
- inhibition [1]: > 75%
- pIC50 [2]: 5.98
Compound: CCC(C)n1cc(-c2nc3ccccc3nc2Cl)c2cc(OC)ccc21 (centres undefined)
- Ratio IC50 (Homo sapiens): 4.75

- inhibition [1]: > 75%
- pIC50 [2]: 5.22
Compound: COC(=O)/C=C/c1c(-c2nc3ccccc3nc2Cl)c2cc(OC)ccc2n1C(C)C

Source: ChEMBL document CHEMBL4393686, “InCl3 mediated heteroarylation of indoles and their derivatization via CH activation strategy: Discovery of 2-(1H-indol-3-yl)-quinoxaline derivatives as a new class of PDE4B selective inhibitors for arthritis and/or multiple sclerosis” (Eur J Med Chem, 2019)
